Patent publication US20050234029A1, “Compounds” (priority 2002, published 2005)
pIC50: −log10 of the molar value.

Tests used:
[1] = system: TGF-β signalling (PAI-1 promoter-luciferase in HepG2 cells); assay: Cellular transcriptional assay (PAI-1 promoter luciferase reporter); type: cell-based; settings: Homo sapiens, PAI-1 promoter firefly luciferase, rhTGFβ-1 1 ng/mL
Protocol: Assay 1 (Cellular Transcriptional Assay)
These plates were placed in a cell incubator.
Columns 11 and 12 were employed as controls.

[2] = target: T1, recombinant GST-ALK5 (residues 198-503) (Homo sapiens, UniProt P36897); assay: Alk5 fluorescence polarization assay; type: binding; settings: rhodamine green-labelled ligand 1 nM, ALK5 10 nM, read-out: ALK5 receptor modulator activity (IC50)
T1 construct: assays using recombinant GST-ALK5 (residues 198-503)
T1 sequence (P36897 198-503): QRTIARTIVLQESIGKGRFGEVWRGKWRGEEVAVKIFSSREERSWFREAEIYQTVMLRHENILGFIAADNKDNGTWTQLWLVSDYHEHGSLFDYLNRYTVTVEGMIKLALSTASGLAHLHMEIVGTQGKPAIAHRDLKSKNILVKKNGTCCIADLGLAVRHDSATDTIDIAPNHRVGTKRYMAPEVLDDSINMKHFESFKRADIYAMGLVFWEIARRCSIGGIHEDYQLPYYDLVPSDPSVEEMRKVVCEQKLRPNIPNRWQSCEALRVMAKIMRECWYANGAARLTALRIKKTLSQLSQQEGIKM
Protocol: Assay 2 (Alk5 Fluorescence Polarization Assay)
Kinase inhibitor compounds conjugated to fluorophores, can be used as fluorescent ligands to monitor ATP competitive binding of other compounds to a given kinase. The increase in depolarization of plane polarized light, caused by release of the bound ligand into solution, is measured as a polarization/anisotropy value. This protocol details the use of a rhodamine green-labelled ligand for assays using recombinant GST-ALK5 (residues 198-503).
Assay buffer components: 62.5 mM Hepes pH 7.5 (Sigma H-4034), 1 mM DTT (Sigma D-0632), 12.5 mM MgCl2 (Sigma M-9272), 1.25 mM CHAPS (Sigma C-3023). […]
ALK5 was added to assay buffer containing the above components and 1 nM of the rhodamine green-labelled ligand so that the final ALK5 concentration was 10 nM based on active site titration of the enzyme. […] The plates were read immediately on a LJL Acquest fluorescence reader (Molecular Devices, serial number AQ1048) with excitation, emission, and dichroic filters of 485 nm, 530 nm, and 505 nm, respectively. The fluorescence polarization for each well was calculated by the Acquest reader and then imported into curve fitting software for construction of concentration response curves. The normalized response was determined relative to the high controls (1 μl DMSO in column 12, rows A-D) and the low controls (1 μl of control compound in column 12, rows E-H). […]

melting point	pIC50 [1]	pIC50 [2]	SMILES
174 °C	–	–	COc1ccc(-c2cc(-c3c(-c4cccc(C)n4)nc4ccccn34)ccn2)cc1 [Example 2, 3-[2-(4-methoxy-phenyl)-pyridin-4-yl]-2-(6-methyl-pyridin-2-yl)-imidazo[1,2-a]pyridine]
120 °C	–	–	Cc1cccc(-c2nc3ccccn3c2-c2ccnc(-c3ccc(OC(F)(F)F)cc3)c2)n1 [Example 3, 2-(6-methyl-pyridin-2-yl)-3-[2-(4-trifluoromethoxy-phenyl)-pyridin-4-yl]-imidazo[1,2-a]pyridine]
214 °C	–	–	Cc1cccc(-c2nc3ccccn3c2-c2ccnc(-c3ccc(C#N)cc3)c2)n1 [Example 4]
242 to 244 °C	–	–	CS(=O)(=O)c1ccc(-c2cc(-c3c(-c4ccccn4)nc4ccccn34)ccn2)cc1 [Example 5, 3-[2-(4-Methanesulfonyl-phenyl)-pyridin-4-yl]-2-pyridin-2-yl-imidazo[1,2-a]pyridine]
–	6.90	7.96	Cc1cccc(-c2nc3ccccn3c2-c2ccnc(-c3ccc(S(C)(=O)=O)cc3)c2)n1 [Example 6, 3-[2-(4-Methanesulfonyl-phenyl)-pyridin-4-yl]-2-(6-methyl-pyridin-2-yl)-imidazo[1,2-a]pyridine]
214 °C	–	–	CC(=O)c1ccc(-c2cc(-c3c(-c4ccccn4)nc4ccccn34)ccn2)cc1 [Example 8, 3-[2-(4-(Acetyl)phenyl)-pyridin-4-yl]-2-(pyridin-2-yl)-imidazo[1,2-a]pyridine]
133 °C	–	–	CC(=O)Nc1ccc(-c2cc(-c3c(-c4ccccn4)nc4ccccn34)ccn2)cc1 [Example 9, 3-[2-(4-(Methylcarbonylamino)phenyl)-pyridin-4-yl]-2-pyridin-2-yl-imidazo[1,2-a]pyridine]
257 °C	–	–	CC(=O)Nc1ccc(-c2cc(-c3c(-c4cccc(C)n4)nc4ccccn34)ccn2)cc1 [Example 10, 3-[2-(4-(methylcarbonylamino)phenyl)-pyridin-4-yl]-2-(6-methyl-pyridin-2-yl)-imidazo[1,2-a]pyridine]
128 °C	–	–	Cc1cccc(-c2nc3ccccn3c2-c2ccnc(-c3ccc(C(=O)NC4CCOCC4)cc3)c2)n1 [Example 27, 3-[2-(4-((tetrahydropyran-4-yl)aminocarbonyl)phenyl)-pyridin-4-yl]-2-(6-methyl-pyridin-2-yl)-imidazo[1,2-a]pyridine]
191 °C	–	–	O=C(c1ccc(-c2cc(-c3c(-c4cccc(F)n4)nc4ccccn34)ccn2)cc1)N1CCOCC1 [Example 33, 2-(6-Fluoro-pyridin-2-yl)-3-{2-[4-((morpholiny-4-yl)carbonyl)phenyl]-pyridin-4-yl}-imidazo[1,2-a]pyridine]
163 °C	6.90	7.82	Cc1ccn2c(-c3ccnc(-c4ccc(OCCN5CCCC5)cc4)c3)c(-c3cccc(C)n3)nc2c1 [Example 38, 7-Methyl-2-(6-methyl-pyridin-2-yl)-3-{2-[4-(2-(pyrrolidin-1-yl)ethoxy)phenyl]-pyridin-4-yl}-imidazo[1,2-a]pyridine]

Further lines, the compound ahead of its results:

SMILES	melting point	pIC50 [1]	pIC50 [2]
CS(=O)(=O)Nc1ccc(-c2cc(-c3c(-c4cccc(Cl)c4)nc4ccccn34)ccn2)cc1 [Example 11, 2-(3-chloro-phenyl)-3-[2-(4-(methanesulfonylamino)phenyl)-pyridin-4-yl]-imidazo[1,2-a]pyridine]	60 °C	–	–
c1ccc(-c2nc3ccccn3c2-c2ccnc(-c3ccc(CN4CCOCC4)cc3)c2)nc1 [Example 17, 3-[2-(4-(Morpholin-4-yl-methyl)-phenyl)-pyridin-4-yl]-2-pyridin-2-yl-imidazo[1,2-a]pyridine]	80 °C (dec.)	–	–
Fc1ccc(-c2nc3ccccn3c2-c2ccnc(-c3ccc(CN4CCOCC4)cc3)c2)cc1Cl [Example 18, 2-(3-Chloro-4-fluoro-phenyl)-3-[2-(4-(morpholin-4-yl-methyl)phenyl)-pyridin-4-yl]-imidazo[1,2-a]pyridine]	189 °C	–	–
Fc1ccc(-c2nc3ccccn3c2-c2ccnc(-c3ccc(CN4CCCC4)cc3)c2)cc1F [Example 19, 2-(3,4-Difluoro-phenyl)-3-[2-(4-(pyrrolidin-1-yl-methyl)phenyl)-pyridin-4-yl]-imidazo[1,2-a]pyridine]	155 °C	–	–
Fc1ccc(-c2nc3ccccn3c2-c2ccnc(-c3ccc(CN4CCOCC4)cc3)c2)cc1F [Example 20, 2-(3,4-Difluoro-phenyl)-3-[2-(4-(morpholin-1-yl-methyl)phenyl)-pyridin-4-yl]-imidazo[1,2-a]pyridine]	205 °C	–	–
Cc1cccc(-c2nc3ccc(Cl)cn3c2-c2ccnc(-c3ccc(CN4CCOCC4)cc3)c2)n1 [Example 21, 6-Chloro-2-(6-methyl-pyridin-2-yl)-3-[2-(4-(morpholin-4-yl-methyl)phenyl)-pyridin-4-yl]-imidazo[1,2-a]pyridine]	157 °C	–	–
Cc1ccn2c(-c3ccnc(-c4ccc(CN5CCOCC5)cc4)c3)c(-c3cccc(C)n3)nc2c1 [Example 22, 7-Methyl-2-(6-methyl-pyridin-2-yl)-3-[2-(4-(morpholin-4-yl-methyl)phenyl)-pyridin-4-yl]-imidazo[1,2-a]pyridine]	188 °C	–	–
Cc1cccc(-c2nc3ccc(Cl)cn3c2-c2ccnc(-c3ccc(CN4CCCC4)cc3)c2)n1 [Example 23, 6-Chloro-2-(6-methyl-pyridin-2-yl)-3-[2-(4-(pyrrolidin-1-yl-methyl)phenyl)-pyridin-4-yl]-imidazo[1,2-a]pyridine]	134 °C	–	–
Cc1cccc(-c2nc3c(C)cccn3c2-c2ccnc(-c3ccc(CN4CCOCC4)cc3)c2)n1 [Example 24, 8-Methyl-2-(6-methyl-pyridin-2-yl)-3-{2-[4-((morpholin-4-yl)methyl)phenyl]-pyridin-4-yl}-imidazo[1,2-a]pyridine]	122 °C	–	–
O=C(NC1CCOCC1)c1ccc(-c2cc(-c3c(-c4ccccn4)nc4ccccn34)ccn2)cc1 [Example 26, 3-[2-(4-((Tetrahydropyran-4-yl)aminocarbonyl)phenyl)-pyridin-4-yl]-2-pyridin-2-yl-imidazo[1,2-a]pyridine]	179 °C	–	–
CCN1CCN(C(=O)c2ccc(-c3cc(-c4c(-c5cccc(C)n5)nc5c(C)cccn45)ccn3)cc2)CC1 [Example 32, 8-Methyl-2-(6-methyl-pyridin-2-yl)-3-{2-[4-((1-ethyl-piperazin-4-yl)carbonyl)phenyl]-pyridin-4-yl}-imidazo[1,2-a]pyridine]	212 °C	–	–
Clc1cccc(-c2nc3ccccn3c2-c2ccnc(-c3ccc(OCCN4CCCC4)cc3)c2)c1 [Example 37, 2-(3-Chloro-phenyl)-3-{2-[4-(2-(pyrrolidin-1-yl)ethoxy)phenyl]-pyridin-4-yl}-imidazo[1,2-a]pyridine]	298 °C	–	–
